Data from US20020022742A1, “Salt forms of an HIV protease inhibitor” (priority 2000, published 2002).
Values after ≈ are worked out from the molar mass of the structure shown.

Experiments:
[1] = tested on: HIV-1 (RF); assay: HIV RNA assay, microplate based compound evaluation in HIV-1 infected MT-2 cells; type: cell-based; settings: Human immunodeficiency virus 1, MT2, 72 h; HIV-1 (RF) infected MT-2 cells, 3 days of culture; virus dilutions selected to result in this value (standardization of inoculum); read-out: IC90 (concentration of compound required to reduce the HIV RNA level by 90%)
[2] = target: HIV protease (Human immunodeficiency virus type 1 group M subtype B, UniProt P04585); assay: HIV protease inhibition (test only mentioned); type: biochemical; settings: stated in words only, no value given

| IC90 [1] [µg/mL] | SMILES | HIV protease inhibitory activity [2] |
| --- | --- | --- |
| 0.2 (≈ 0.947 µM) | Nc1ccn([C@H]2CC[C@@H](CO)O2)c(=O)n1 [ddC, dideoxycytidine] | – |
| – | CC(C)CN(C[C@@H](O)[C@H](Cc1ccccc1)NC(=O)[C@@H](NC(=O)CNCc1cccc(F)c1)C(C)(C)C)S(=O)(=O)c1ccc(N)cc1 [Compound A] | potent HIV protease inhibitor |
